Numbers after ± are expanded uncertainties.
Assay: xn = mol fraction of the nth substance listed
Details: 101 kPa, Liquid, Vibrating tube method

C1CCC(NC2CCCCC2)CC1 [N-cyclohexylcyclohexanamine] + CCC(C)O
mass density [kg/m3]
Details	288.15 K	293.15 K	298.15 K	303.15 K	308.15 K	313.15 K	318.15 K	323.15 K
x2 = 0	915.498 ± 0.23	911.705 ± 0.23	907.923 ± 0.23	904.144 ± 0.23	900.372 ± 0.23	896.608 ± 0.23	892.847 ± 0.23	889.089 ± 0.23
x2 = 0.0996	912.349 ± 0.23	908.493 ± 0.23	904.633 ± 0.23	900.775 ± 0.23	896.914 ± 0.23	893.053 ± 0.23	889.189 ± 0.23	885.321 ± 0.24
x2 = 0.1998	908.349 ± 0.23	904.427 ± 0.23	900.497 ± 0.23	896.561 ± 0.23	892.619 ± 0.23	888.669 ± 0.24	884.706 ± 0.24	880.732 ± 0.24
x2 = 0.3	903.446 ± 0.23	899.455 ± 0.23	895.457 ± 0.24	891.448 ± 0.24	887.426 ± 0.24	883.39 ± 0.24	879.336 ± 0.24	875.264 ± 0.24
x2 = 0.3998	897.469 ± 0.23	893.416 ± 0.24	889.353 ± 0.24	885.272 ± 0.24	881.174 ± 0.24	877.057 ± 0.24	872.915 ± 0.24	868.746 ± 0.24
x2 = 0.5011	889.89 ± 0.23	885.775 ± 0.24	881.646 ± 0.24	877.495 ± 0.24	873.319 ± 0.24	869.116 ± 0.24	864.882 ± 0.24	860.611 ± 0.24
x2 = 0.599	880.802 ± 0.23	876.639 ± 0.24	872.452 ± 0.24	868.239 ± 0.24	863.994 ± 0.24	859.715 ± 0.24	855.394 ± 0.24	851.029 ± 0.24
x2 = 0.6999	869.241 ± 0.24	865.057 ± 0.24	860.838 ± 0.24	856.586 ± 0.24	852.289 ± 0.24	847.947 ± 0.24	843.552 ± 0.24	839.101 ± 0.24
x2 = 0.7998	854.484 ± 0.24	850.31 ± 0.24	846.088 ± 0.24	841.819 ± 0.24	837.495 ± 0.24	833.106 ± 0.24	828.652 ± 0.24	824.126 ± 0.25
x2 = 0.8996	835.606 ± 0.24	831.493 ± 0.24	827.317 ± 0.24	823.072 ± 0.24	818.755 ± 0.24	814.354 ± 0.24	809.861 ± 0.24	805.292 ± 0.25
x2 = 0.9494	823.99 ± 0.24	819.925 ± 0.24	815.784 ± 0.24	811.566 ± 0.24	807.262 ± 0.25	802.87 ± 0.25	798.377 ± 0.25	793.784 ± 0.25

— the NIST ThermoML archive (doi:10.1016/j.tca.2011.08.002)
